Patent US20240002424A1, “HEXOSAMINE COMPOUNDS AND METHODS THEREOF” (National Institute of Immunology, priority 2021, published 2024)

Tests used:
Type in all cases: cell-based, human
[1] = test system: HL-60 cells; assay: SNA lectin binding on intact cells by flow cytometry; conditions: 50 μM, 24 h
[2] = test system: Jurkat cells; assay: NeuAz expression on the cell surface by SPAAC with DBCO-Cy5 and flow cytometry, competition with Ac4ManNAz (1c); conditions: for NeuAz expression / DBCO-Cy5 signal, compound alone: 50 μM alone; for extent of suppression of NeuAz expression by 1c: 50 μM co-incubated with 1c, study parallel to GalNAz; for NeuAz expression, % of controls: 50 μM with 1c 50 μM, simultaneous addition; for reduction of NeuAz, simultaneous addition: analogue 10 μM and 1c 50 μM added simultaneously
Description: FIG. 5 illustrates competitive processing by compounds of the present invention (ManNAc compounds). ManNAc compounds competitively reduce the expression of N-azidoacetyl-D-neuraminic acid (NeuAz)-carrying sialoglycans through the metabolic processing of Ac4ManNAz. Jurkat (human T-lymphoma) cells were incubated with Ac4ManNAz (Z) (50 μM) alone, co-incubated with GL-2, GL-3, MA-2, or MA-3 (at various concentrations such as 10,
25, and 50 μM) for 24 h. Expression of N-azidoacetyl-D-neuraminic acid (NeuAz) on the cell surface sialoglycans was estimated using strain-promoted azide-alkyne cycloaddition (SPAAC) with DBCO-Cy5 and analyzed by flow cytometry. […] GL-2 was used for comparative study and the structure of this compound is as below.
Jurkat cells (3.0×10^5 cells/mL; 2.5 mL per well in 6-well plates) in complete medium were treated with either vehicle (D) or Compound 1c; Untreated Jurkat cells, without addition of vehicle, were also included as additional controls. Cells were harvested at 48 h, washed thrice with PBS (3×0.5 mL) (3000×g, 2.0 min). Prior to the last wash cells were counted and were aliquoted to 1.0×10^6 cells per sample in 1.5 mL microcentrifuge tubes and centrifuged. The cells were gently resuspended in PBS ([…]) and treated with DBCO-Cy5 ([…]) and incubated at 37° C. (on a Torrey-Pines dry heating bath with mild shaking). After one hour, the cells were washed using FSB (0.5 mL, 3000×g, 2.0 min, room temperature), resuspended in PBS (250 mL), treated with PI (2.5 mg/mL), and analyzed using BD FACSCanto and FACSDiva Version 6.1.3. The cells were gated for PI-negative population for 10,000 events. Two replicate samples were prepared for each conditions and each sample was counted twice.
Estimation of NeuAz expression by 1c in the presence of peracetylated ManNAc analogues: Jurkat cells (3.0×10^5 cells/mL in 3.0 mL per well in 6-well plates) were incubated with (i) D, (ii) 1a, 1b, 1c, or 1d alone (50 mM) or (iii) 1a, 1b, or 1d (50 mM) in combination with 1c (50 mM). After 24 h, cells were harvested, washed using FSB, aliquoted to 5.0×10^5 cells per sample, and processed as mentioned above for estimation of NeuAz expression using DBCO-Cy5 ([…]). Experiments using HL-60 cells were performed using the same procedure. […]
Effect of GlcNAc and ManNAc analogues on NeuAz expression: Jurkat cells were treated with 1a, 1b, 2a, or 2b (10, 25, and 50 mM for each analogue) in combination with 1c (50 mM). Cells treated with 1c (50 mM) alone were considered as a reference. After 24 h, cells were harvested, processed, labelled with DBCO-Cy5 ([…]), and analysed by flow cytometry as mentioned above.
In order to evaluate the metabolism, Jurkat (human T-lymphoma) cells were selected and incubated with ManNAc analogues either alone (50 μM) or in combination with 1c (50 μM) for 48 h. Expression of NeuAz on cell surface was estimated by flow cytometry through the copper-free bio-orthogonal strain-promoted azide-alkyne cycloaddition (SPAAC) reaction using dibenzocyclooctyne-Cy5 (DBCO-Cy5). The conditions for click reaction were optimized for various concentrations of DBCO-Cy5 and time course of SPAAC reaction in Jurkat cells. Based on the optimization results, incubation time of 30 min at 37° C. for 5.0×10^5 cells (pre-incubated with 1c for 48 h) with 20 μM of DBCO-Cy5 in 100 μL total volume for experiments with ManNAc analogues was chosen. […] In order to test the dose-dependency of this inhibitory effect on NeuAz expression and to establish competitive metabolic processing, Jurkat cells were first treated with either 1a or 1b (0-50 μM) followed by addition of 1c (50 μM) at 12 h and estimation of NeuAz at 48 h. As expected, the suppression of NeuAz expression was substantially higher when added with a 12 h delay compared to simultaneous addition, in a dose-dependent manner. […] By contrast simultaneous addition resulted only in a 10% reduction of NeuAz for both 1a and 1b (FIG. 6C and FIG. 7B).

[3] = test system: HL-60 cells; assay: Far-western blot of total lysates with biotinylated MAL-II; conditions: HL-60 lysates; 50 μM, 72 h
Description: After 72 h, cells were harvested and lyzed in RIPA buffer containing PIC. Protein concentration in the soluble fraction was estimated using Bradford assay, subjected to 10% SDS-PAGE, blotted onto nitrocellulose membranes (constant current 250 mA, 3 h, 4° C.). Membranes were blocked using 2% w/v gelatin (5.0 mL) in 0.1% PBS-T at room temperature. After 1h, membranes were incubated with either bMAL-II (1:2000, stock conc. 1.0 mg/mL) or bSNA (1:5000, stock conc. 2.0 mg/mL) in 0.1% PBS-T (5.0 mL) at room temperature. After 1 h, membranes were washed using 0.1% PBS-T (6×5.0 mL, 5.0 min), followed by incubation with HRPconjugated avidin (1:50000, stock conc. 2.0 mg/mL) in 0.1% PBS-T (5.0 mL). After 30 min, membranes were washed using 0.1% PBS-T (6×5.0 mL, 5.0 min). Blots were developed using enhanced chemiluminescence substrate and photographic films. Blots using anti-β-actin (as mentioned above) were performed in parallel as loading controls. At least two independent replicate experiments were performed.

[4] = 50 μM co-incubated with 1c 50 μM, 48 h

SMILES	SNA binding on intact cells compared to untreated cells [1]	NeuAz expression / DBCO-Cy5 signal, compound alone ([2]; 48 h)	NeuAz expression (1c alone taken as 100%) [2, 4] [%]	extent of suppression of NeuAz expression by 1c [2] [%]	NeuAz expression, % of controls ([2]; 24 h) [%]	NeuAz expression upon co-incubation with Ac4ManNAz ([2]; Ac4ManNAz (Z) 50 μM plus analogue at 10, 25, 50 μM, 24 h, listed as MA-2)	reduction of NeuAz, simultaneous addition [2] [%]	MAL-II epitopes in lectin blot [3]	reduction of NeuAz expression [2, 4] [%]
CC(=O)OC[C@H]1O[C@H](OC(C)=O)[C@@H](NC(=O)C2CC2)[C@@H](OC(C)=O)[C@@H]1OC(C)=O [Compound 1a, 1,3,4,6-tetra-O-acetyl-2-cyclopropanoylamino-2-deoxy-α-D-mannopyranose]	no significant differences	negligible signals	60	50	60	reduced competitively in a dose-dependent manner	10	slight increase	–
CC(=O)OC[C@H]1OC(OC(C)=O)[C@@H](NC(=O)C2CCC2)[C@@H](OC(C)=O)[C@@H]1OC(C)=O (stereo partly drawn) [Compound 1b, (3S,4R,5S,6R)-6-(acetoxymethyl)-3-(cyclobutanecarboxamido)tetrahydro-2H-pyran-2,4,5-triyl triacetate]	no significant differences	negligible signals	65	50	50	–	10	slight increase	–
CC(=O)NC1C(OC(C)=O)OC(COC(C)=O)[C@@H](OC(C)=O)[C@@H]1OC(C)=O (stereo partly drawn) [Compound 1d, 1,3,4,6-tetra-O-acetyl-2-acetylamino-2-deoxy-α/β-D-mannopyranose]	no significant differences	negligible signals	30	–	–	–	–	below detection limit	70
